Entries after “also recorded” stand apart in the source; their conditions may differ.
Assays:
Type in all cases: cell-based, human
IGROV-1 cells = assay: Comet assay (DNA damage in single cells); conditions: IGROV-1, 24 h; 100 μM for Cisplatin and Os-Gly
Protocol: Comet assays were carried out to determine whether the complexes caused DNA damage in single cells. […] Cisplatin DNA-adducts have been shown previously to inhibit DNA migration through electrophoresis presenting as less tail movement. […] Excess dye was removed, and cells were re-suspended in PBS. Samples were analysed by flow cytometry using the BD FACSMelodyTM Cell Sorter (R653880001) and data analysis on FlowJoTM v10 Software (BD Life Sciences).9 2.11 Apoptosis IGROV-1 cells (1 x 106) were seeded in a 6-well plate and incubated for 24 h at 310 K. Stock solutions (200 μM) of the complexes were prepared by dissolving the compound in 5% (v/v) DMSO followed by dilution with DMEM and then diluted to desired concentrations. All complexes (50 μM and 100 μM) were added to the wells and incubated for 24 h. Cell pellets were collected using 0.25% trypsin and centrifuged (500 x g, 5 mins at 277 K). Cell pellets were washed with PBS and then stained with the commercial Apoptosis Detection Kit-FITC Annexin V and PI (BioLegend; San Diego, USA), as per manufacturer's instructions. Briefly, a staining solution of FITC Annexin V (1 unit/100 μL) diluted 1 in 100 and 1 μg/mL PI was added to the cells (30 min, room temperature). Excess dye was removed, and cells were re-suspended in PBS. Samples were analysed by flow cytometry using the BD FACSMelodyTM Cell Sorter (R653880001) and data analysis on FlowJoTM v10 Software (BD Life Sciences).9 2.12 Comet assay IGROV-1 cells (8×10^5 cells per well) were seeded into 6-well plates and incubated for 24 h. Test compounds (50 μM and 100 μM) were added to the wells and incubated at 3 10 K for 24 h. Cells were enzymatically detached using trypsin and cell concentration adjusted to 2×10^4 cells /mL in ice-cold PBS. 0.4 mL of cell suspension was added to 1.2 mL of 1% low melting point agarose in H 2O, then immediately added to microscope slides pre -coated in 1% agarose. […] Twenty comet images per sample were taken by confocal microscopy and analysed by OpenComet. […]

[1] = tested on: A549 lung carcinoma cells; assay: Antiproliferative activity, SRB assay
Protocol: (§1) The antiproliferative activity against human A549 lung, IGROV-1 ovarian, and HeLa cervical cancer cell lines and MRC5 normal lung fibroblasts was determined by the sulforhodamine B (SRB) assay. […] IGROV-1 is known to be cisplatin-sensitive and subject to hypermutation.
(§2) 2.8 Mammalian cell culture
(§3) The human ovarian cancer cell line, IGROV-1; the human cervical cancer cell line, HeLa; the human […]; and the human non-cancerous lung fibroblast cell line, MRC5 were cultured in DMEM supplemented with 10% FBS and 100 units/mL of penicillin and 100 µg/mL of streptomycin (1x pen/strep). All cell lines were incubated at 310 K with 5% CO2 and 95% humidity for routine maintenance and during drug treatment.
(§4) 2.9 Sulforhodamine (SRB) cytotoxicity assay
(§5) Cells were seeded at 5 × 10^3 cells per well and incubated at 310 K for 48 h. Stock solutions (200 µM) of the complexes were prepared by dissolving the compound in 5% (v/v) DMSO followed by dilution with DMEM and serial dilutions with DMEM were prepared (0.1 µM-200 The cells were exposed to the drug for 24 h. The drug was then removed, and cells were allowed to recover for 72 h, in drug-free media. Cell viability was then determined by the SRB colorimetric assay. The solubilised dye absorbance was analysed on a microplate reader (Thermo Scientific Multiskan FC with Scanit software 4.1) at 470 nm. Data were normalized using Microsoft Excel, and dose-response curves fitted using Origin 2016. The IC50 values

[2] = tested on: IGROV-1 ovarian carcinoma cells; assay: Antiproliferative activity, SRB assay
Protocol: as §1, §2, §3, §4, §5

[3] = tested on: MRC-5 normal lung fibroblasts; assay: Antiproliferative activity, SRB assay
Protocol: as §1, §2, §3, §4, §5

**Q.** Which results are given for [(p-cymene)Os(L-BSO)Cl] [Os-LBSO]?
**A.** Comet tails vs untreated cells (IGROV-1 cells): trend toward longer comet tails but this was not significant; Activity toward lung cancer cells ([1]; A549, SRB): inactive; IC50 ([1]; A549, SRB assay, 24 h treatment, 72 h recovery): > 200 µM; Activity against IGROV-1 ([2]; IGROV-1, SRB): active; IC50 ([2]; IGROV-1, SRB assay, 24 h treatment, 72 h recovery): 14.6 ± 0.5 µM; Activity toward normal lung cells ([3]; MRC-5, SRB): highly active; also recorded: some activity; IC50 ([3]; MRC-5, SRB assay, 24 h treatment, 72 h recovery): 11.8 ± 0.6 µM
